Measured values taken from patent US12617762B2, “Carboxy derivatives with antiinflamatory properties” (Sitryx Therapeutics Limited, priority 2019, dated 2026).
Structures can show the parent of a compound that is named as a salt. Where two headings read alike, the source gives them in different places.

Experiments:
[1] = test system: NRF2 (nuclear factor erythroid 2-related factor 2); experiment: NRF2 +/-GSH activation assay (DiscoverX PathHunter NRF2 translocation kit, U2OS cells); assay type: cell-based; details: for NRF2 activation +GSH Emax / NRF2 activation −GSH Emax: normalised to DMF high control
In short: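 Activation is expressed as percent of plate DMF (high) versus no-DMF (low) controls, from luminescence after 6 h compound exposure at 37 °C of U2OS PathHunter cells. The +GSH condition used compound pre-incubated 30 min in 6 mM working GSH; −GSH cells received compound directly.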

[2] = test system: IL-6 cytokine output from THP-1s; experiment: THP-1 AlphaLISA IL-6 cytokine inhibition assay; assay type: cell-based; details: Homo sapiens, LPS then nigericin
Method: The cytokine inhibition profiles of compounds of formula (I) were determined in a differentiated THP-1 cell assay. All assays were performed in RPMI-1640 growth medium (Gibco), supplemented with 10% fetal bovine serum (FBS; Gibco), 1% penicillin-streptomycin and 1% sodium pyruvate unless specified otherwise. The IL-1β cytokine inhibition assay was run in a background of differentiated THP-1 cells as described below. All reagents described were from Sigma-Aldrich unless specified otherwise. Compounds were prepared as 10 mM DMSO stocks.
THP-1 cells were expanded as a suspension up to 80% confluence in appropriate growth medium. Cells were harvested, suspended, and treated with an appropriate concentration of phorbol 12-myristate 13-acetate (PMA) over a 72 hr period (37° C./5% CO2).
Following 72 hrs of THP-1 cell incubation, cellular medium was removed and replaced with fresh growth media containing 1% of FBS. Working concentrations of compounds were prepared separately in 10% FBS treated growth medium and pre-incubated with the cells for 30 minutes (37° C./5% CO2). Following the 30 minute compound pre-incubation, THP-1s were treated with an appropriate concentration of LPS and the cells were subsequently incubated for a 24 hr period (37° C./5% CO2). An appropriate final concentration of Nigericin was then dispensed into the THP-1 plates and incubated for 1 hour (37° C./5% CO2) before THP-1 supernatants were harvested and collected in separate polypropylene 96-well holding plates.
Reagents from an IL-1β and IL-6 commercial kit (Perkin Elmer) were prepared and run according to the manufacturer's instructions. Subsequently, fluorescence signal detection in a microplate reader was measured (EnVision® Multilabel Reader, Perkin Elmer).
Percentage inhibition was calculated per cytokine by normalising the sample data to the high and low controls used within each plate (+/− LPS respectively).

[3] = test system: IL-1β cytokine output from THP-1s; experiment: THP-1 AlphaLISA IL-1β cytokine inhibition assay; assay type: cell-based; details: for IC50: Homo sapiens; for IL-1β lowering, result in words: THP-1 IL-1β assay
In short: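 IL-1β release by AlphaLISA, expressed as % inhibition against +/− LPS controls on each plate. Differentiation: PMA, 72 h. Sequence: 30 min compound pre-treatment, LPS 24 h, Nigericin 1 h before supernatant harvest, all at 37° C./5% CO2.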

[4] = Hepatocyte stability assay, mouse; assay type: in vitro ADME; details: mouse, hepatocytes; for hepatocyte CLint at 10 μM: Hepatocyte stability Clint; for half-life at 10 μM: Hepatocyte stability T½
In short: (§1)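 Thawed cryopreserved hepatocytes (viability >70%) at 0.5×10^6 cells/mL in Leibovitz buffer were preincubated at 37° C, then given 10 μM compound (0.1% DMSO) in duplicate. Samples at 0–60 min were quenched in acetonitrile and analysed by LC-MS/MS. Intrinsic clearance and half-life were derived from ln % remaining versus time.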

[5] = Hepatocyte stability assay, human; assay type: in vitro ADME; details: human, hepatocytes; for hepatocyte CLint at 10 μM: Hepatocyte stability Clint; for half-life at 10 μM: Hepatocyte stability T½
In short: as §1

[6] = +GSH, 30 minute compound-GSH pre-incubation, read-out: NRF2 activation +GSH EC50
[7] = −GSH, U2OS PathHunter cells, 6 hours compound treatment, read-out: NRF2 activation −GSH EC50
[8] = THP-1, differentiated THP-1 cells
[9] = THP-1, differentiated THP-1 cells, LPS then nigericin

IC50 ([2]; differentiated THP-1 cells) | IC50 ([3]; THP-1, Table 3, head to head comparison of exo vs endo double bond compounds) | SMILES | EC50 [1, 6] | NRF2 activation +GSH Emax ([1]; +GSH) | EC50 [1, 7] | NRF2 activation −GSH Emax ([1]; −GSH) | IC50 [2, 8] | IC50 [3, 9] | IL-1β lowering, result in words [3] | hepatocyte CLint at 10 μM [4] | half-life at 10 μM [4] | hepatocyte CLint at 10 μM [5] | half-life at 10 μM [5]
– | – | C=C(Cc1nc(C(C)CCCCCC(F)(F)F)no1)C(=O)O (stereo not shown) [Example 54, 2-((3-(8,8,8-trifluorooctan-2-yl)-1,2,4-oxadiazol-5-yl)methyl)acrylic acid] | 42.4 µM | 50% | 44.6 µM | 115% | 19.1 µM | > 100 µM | not effective | 13 µL/min/1e6 cells | 102 min | 5 µL/min/1e6 cells | 268 min
9.8 µM | – | C=C(C(=O)O)C(OC)c1nc(CCCCCCCC)no1 (stereo not shown) [Example 110, 2-(methoxy(3-octyl-1,2,4-oxadiazol-5-yl)methyl)acrylic acid] | 48.8 µM | 132% | 38.9 µM | 153% | – | > 31.6 µM | – | > 460 µL/min/1e6 cells | < 3 min | > 460 µL/min/1e6 cells | < 3 min
– | – | C=C(Cc1nc(-c2ccc(CCCCC(F)(F)F)cc2)no1)C(=O)O [Example 75, 2-((3-(4-(5,5,5-trifluoropentyl)phenyl)-1,2,4-oxadiazol-5-yl)methyl)acrylic acid] | 7.1 µM | 188% | 4.8 µM | 263% | 3.1 µM | 13.7 µM | – | 480 µL/min/1e6 cells | 4 min | 80 µL/min/1e6 cells | 15 min
– | – | C=C(Cc1nc(Cc2ccc(OC(F)(F)C(F)F)cc2)no1)C(=O)O [Example 81, 2-((3-(4-(1,1,2,2-tetrafluoroethoxy)benzyl)-1,2,4-oxadiazol-5-yl)methyl)acrylic acid] | – | – | – | – | 12.8 µM | 22 µM | – | 94 µL/min/1e6 cells | 18 min | < 3 µL/min/1e6 cells | > 460 min
– | – | C=C(Cc1nc(C2(c3cc(Cl)cc(Cl)c3)CC2)no1)C(=O)O [Example 67, 2-((3-(1-(3,5-dichlorophenyl)cyclopropyl)-1,2,4-oxadiazol-5-yl)methyl)acrylic acid] | – | – | – | – | 4.1 µM | 69.4 µM | – | 92 µL/min/1e6 cells | 13 min | 70 µL/min/1e6 cells | 23 min
23.1 µM | – | C=C(Cc1noc(C(F)(F)c2ccc(Cl)cc2)n1)C(=O)O [Example 84, 2-((5-((4-chlorophenyl)difluoromethyl)-1,2,4-oxadiazol-3-yl)methyl)acrylic acid] | – | – | – | – | – | 39 µM | – | 83 µL/min/1e6 cells | 21 min | 14 µL/min/1e6 cells | 115 min
17.9 µM | – | C=C(Cc1nc(C2(c3cc(F)c(Cl)c(F)c3)CC2)no1)C(=O)O [Example 135, 2-((3-(1-(4-chloro-3,5-difluorophenyl)cyclopropyl)-1,2,4-oxadiazol-5-yl)methyl)acrylic acid] | – | – | – | – | – | 13.2 µM | – | 159 µL/min/1e6 cells | 8 min | 31 µL/min/1e6 cells | 45 min
– | – | C=C(Cc1nc(C2(c3ccc(OC(F)(F)C(F)F)cc3)CC2)no1)C(=O)O [Example 82, 2-((3-(1-(4-(1,1,2,2-tetrafluoroethoxy)phenyl)cyclopropyl)-1,2,4-oxadiazol-5-yl)methyl)acrylic acid] | – | – | – | – | 20.7 µM | 14.5 µM | – | 30 µL/min/1e6 cells | 58 min | < 3 µL/min/1e6 cells | > 460 min
3.9 µM | – | C=C(Cc1nc(C2(c3ccc(C(F)(F)F)c(Cl)c3)CC2)no1)C(=O)O [Example 136, 2-((3-(1-(3-chloro-4-(trifluoromethyl)phenyl)cyclopropyl)-1,2,4-oxadiazol-5-yl)methyl)acrylic acid] | – | – | – | – | – | 2.9 µM | – | 79 µL/min/1e6 cells | 16 min | 44 µL/min/1e6 cells | 32 min
> 100 µM | – | C=C(C(=O)O)C(C)c1nc(C2(c3ccc(C(F)(F)F)cc3)CC2)no1 (stereo not shown) [Example 174, 2-methylene-3-(3-(1-(4-(trifluoromethyl)phenyl)cyclopropyl)-1,2,4-oxadiazol-5-yl)butanoic acid] | > 100 µM | 1.8% | > 100 µM | 24% | – | 4.2 µM | – | – | – | – | –
– | – | C=C(Cc1ncc(CCCCCCCC)s1)C(=O)O [Example 55, 2-((5-octylthiazol-2-yl)methyl)acrylic acid] | 17.8 µM | 163% | 13.3 µM | 276% | 4.2 µM | 14.9 µM | – | – | – | – | –
– | – | C=C(Cc1cccc(Cc2ccc(Cl)cc2)n1)C(=O)O [Example 171, 2-((6-(4-chlorobenzyl)pyridin-2-yl)methyl)acrylic acid trifluoroacetic acid salt] | > 100 µM | 0% | > 100 µM | 5% | > 100 µM | > 100 µM | – | – | – | – | –
8.4 µM | – | C=C(Cc1nc(CCCCCCCC)c(C)o1)C(=O)O [Example 107, 2-((5-methyl-4-octyloxazol-2-yl)methyl)acrylic acid] | – | – | – | – | – | 9.5 µM | – | > 460 µL/min/1e6 cells | < 3 min | 161 µL/min/1e6 cells | 8 min
– | – | C=C(Cc1nc(C(F)(F)c2ccc(C(F)(F)F)cc2)no1)C(=O)O [Example 92, 2-((3-(difluoro(4-(trifluoromethyl)phenyl)methyl)-1,2,4-oxadiazol-5-yl)methyl)acrylic acid] | – | – | – | – | 19.9 µM | 6.7 µM | – | 23 µL/min/1e6 cells | 84 min | < 3 µL/min/1e6 cells | > 460 min
– | – | C=C(Cc1nc(C(C)(C)c2ccc(Cl)cc2)no1)C(=O)O [Example 30, 2-((3-(2-(4-chlorophenyl)propan-2-yl)-1,2,4-oxadiazol-5-yl)methyl)acrylic acid] | > 100 µM | 12% | > 100 µM | 36% | > 100 µM | 53.3 µM | not effective | – | – | – | –
– | – | C=C(Cc1nc(-c2ccc(Cl)cc2)c(CCCC)o1)C(=O)O [Example 109, 2-((5-butyl-4-(4-chlorophenyl)oxazol-2-yl)methyl)acrylic acid] | – | – | – | – | 10.6 µM | > 31.6 µM | – | 61 µL/min/1e6 cells | 28 min | 20 µL/min/1e6 cells | 79 min
– | – | C#CCCCCCCc1noc(CC(=C)C(=O)O)n1 [Example 35, 2-((3-(oct-7-yn-1-yl)-1,2,4-oxadiazol-5-yl)methyl)acrylic acid] | 48.9 µM | 55% | 43.6 µM | 91% | 34.6 µM | > 100 µM | not effective | – | – | – | –
31.5 µM | > 31.6 µM | CCCCCCCCc1noc(/C=C(\C)C(=O)O)n1 [Example 166, (E)-2-methyl-3-(3-octyl-1,2,4-oxadiazol-5-yl)acrylic acid] | – | – | – | – | – | > 31.6 µM | – | 204 µL/min/1e6 cells | 7 min | 260 µL/min/1e6 cells | 6 min

SMILES | IC50 ([2]; differentiated THP-1 cells) | IC50 ([3]; THP-1, Table 3, head to head comparison of exo vs endo double bond compounds) | EC50 [1, 6] | NRF2 activation +GSH Emax ([1]; +GSH) | EC50 [1, 7] | NRF2 activation −GSH Emax ([1]; −GSH) | IC50 [2, 8] | IC50 [3, 9] | IL-1β lowering, result in words [3] | hepatocyte CLint at 10 μM [4] | half-life at 10 μM [4] | hepatocyte CLint at 10 μM [5] | half-life at 10 μM [5]
C=C(Cc1nc(-c2cc(F)c(OCCCC)c(F)c2)no1)C(=O)O [Example 162, 2-((3-(4-butoxy-3,5-difluorophenyl)-1,2,4-oxadiazol-5-yl)methyl)acrylic acid] | 6.4 µM | – | 1.3 µM | 269% | 1.1 µM | 232% | – | > 46.4 µM | – | – | – | – | –
